Reference: patent publication US10745360B2, “Quinoxaline compounds, method for preparing the same and use thereof” (Development Center for Biotechnology, priority 2014, dated 2020)
Where two headings read alike, the source gives them in different places.

Assays:
C-Raf kinase = molecular target: T1, C-Raf kinase (Homo sapiens, UniProt P04049); assay: C-Raf kinase assay ([33P] incorporation into MEK1 K97R); assay type: biochemical; conditions: recombinant C-Raf, 8 μM ATP, 30 min, 30° C.; read-out: IC50 ranking against C-Raf kinase
T1 construct: purchased Upstate Biotechnology
T1 sequence (P04049 whole entry): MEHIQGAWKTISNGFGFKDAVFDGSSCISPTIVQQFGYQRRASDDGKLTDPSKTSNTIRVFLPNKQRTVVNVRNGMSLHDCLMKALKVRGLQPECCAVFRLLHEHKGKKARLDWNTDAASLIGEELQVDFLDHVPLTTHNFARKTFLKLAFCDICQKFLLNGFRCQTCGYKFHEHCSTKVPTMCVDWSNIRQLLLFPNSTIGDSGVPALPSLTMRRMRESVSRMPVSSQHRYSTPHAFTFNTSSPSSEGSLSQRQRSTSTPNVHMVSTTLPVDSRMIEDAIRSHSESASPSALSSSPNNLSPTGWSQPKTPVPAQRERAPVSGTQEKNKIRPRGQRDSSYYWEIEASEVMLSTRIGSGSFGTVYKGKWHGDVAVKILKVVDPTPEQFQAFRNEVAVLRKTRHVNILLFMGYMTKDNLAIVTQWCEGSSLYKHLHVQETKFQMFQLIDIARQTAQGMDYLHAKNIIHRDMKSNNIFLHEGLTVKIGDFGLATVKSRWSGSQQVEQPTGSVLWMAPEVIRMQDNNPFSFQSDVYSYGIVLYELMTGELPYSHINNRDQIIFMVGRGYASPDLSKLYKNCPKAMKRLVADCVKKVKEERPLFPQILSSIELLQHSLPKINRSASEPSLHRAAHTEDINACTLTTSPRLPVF
Description: (§1) Inhibition of kinase activity by a test compound disclosed herein was estimated by quantifying the amount of [^33P] incorporation of a substrate in the presence of the test compound. Standard assay conditions were 2 ng of recombinant C-Raf kinase (Upstate Biotechnology) with 500 ng MEK1(K97R) in assay buffer (8 μM ATP, 0.5 μCi [^33P]ATP (specific activity 3000 Ci/mmol, PerkinElmer), 50 mM Tris/HCl (pH 7.5), and 1 mM EGTA, 1 mM Na3VO4, 1% 2-mercaptoethanol, 0.1% Brij 35, and 0.2 mg/ml BSA), and the test compound (diluted with 4% DMSO) or DMSO alone (as a control) in a final volume of 25 μL. Reactions were incubated at 30° C. for 30 min and stopped by adding 3% phosphoric acid, harvested onto a 96-well GF/B UniFilter (PerkinElmer) using a unifilter harvester (PerkinElmer), and counted with a TopCount microplate scintillation counter (PerkinElmer). The IC50 values of inhibitors were determined after carrying out assays at 3-fold serially diluted concentrations of each compound in duplication. The results were analyzed using linear regression software (GraphPad Prism 4; GraphPad Software Inc.).

[1] = system: B-Raf^V600E mutant COLO205 colon cancer cell; assay: Cell proliferation assay (CELLTITER 96), COLO205; assay type: cell-based; conditions: Homo sapiens, COLO 205; COLO205, 72 hours; read-out: Cytotoxicity (IC50 Ranking) COLO205 (B-Raf^V600E)
Description: (§2) Inhibition of cell growth by compounds was measured using CELLTITER 96® assay. The cytotoxicity of compounds was evaluated in B-Raf^V600E mutant A375 melanoma cell, B-Raf^V600E mutant COLO205 colon cancer cell, and SK-MEL-2 melanoma cell with wild type B-Raf (B-Raf^wt) and NRASQ^Q61R mutation. A375 and COLO205 cell line were cultured in DMEM containing 10% FCS and incubated at 37° C. in 5% CO2 atmosphere. SK-MEL-2 cell line was cultured in MEM containing 10% FCS and incubated at 37° C. in 5% CO2 atmosphere. A375, COLO205 and SK-MEL-2 cell were seeded into 96-well plates at 2000, 2000, and 4000 cells/well, respectively, and allowed to adhere for overnight. Then, these seeded cells were treated with increasing concentrations of the test compounds and incubated for another 72 hours. At the end of the incubation, CELLTITER 96® Aqueous One Solution Reagent (Promega) was added and incubated for 4 hours. Cell viability was determined by measuring absorbance at 490 nm using EMAX® microplate reader (Molecular Devices).
(§3) The 50% inhibitory concentration (IC50) value was calculated by plotting the percentage of growth inhibition against the concentration of compound, using GraphPad Prism5 software for curve fitting.

B-Raf^V600E kinase = molecular target: T2, B-Raf^V600E kinase (Homo sapiens, UniProt P15056, V600E); assay: B-Raf V600E kinase assay ([33P] incorporation into MEK1 K97R); assay type: biochemical; conditions: recombinant B-Raf^V600E, 8 μM ATP, 30 min, 30° C.; read-out: IC50 ranking against B-Raf^V600E kinase
T2 construct: purchased Upstate Biotechnology
T2 sequence (P15056 whole entry V600E): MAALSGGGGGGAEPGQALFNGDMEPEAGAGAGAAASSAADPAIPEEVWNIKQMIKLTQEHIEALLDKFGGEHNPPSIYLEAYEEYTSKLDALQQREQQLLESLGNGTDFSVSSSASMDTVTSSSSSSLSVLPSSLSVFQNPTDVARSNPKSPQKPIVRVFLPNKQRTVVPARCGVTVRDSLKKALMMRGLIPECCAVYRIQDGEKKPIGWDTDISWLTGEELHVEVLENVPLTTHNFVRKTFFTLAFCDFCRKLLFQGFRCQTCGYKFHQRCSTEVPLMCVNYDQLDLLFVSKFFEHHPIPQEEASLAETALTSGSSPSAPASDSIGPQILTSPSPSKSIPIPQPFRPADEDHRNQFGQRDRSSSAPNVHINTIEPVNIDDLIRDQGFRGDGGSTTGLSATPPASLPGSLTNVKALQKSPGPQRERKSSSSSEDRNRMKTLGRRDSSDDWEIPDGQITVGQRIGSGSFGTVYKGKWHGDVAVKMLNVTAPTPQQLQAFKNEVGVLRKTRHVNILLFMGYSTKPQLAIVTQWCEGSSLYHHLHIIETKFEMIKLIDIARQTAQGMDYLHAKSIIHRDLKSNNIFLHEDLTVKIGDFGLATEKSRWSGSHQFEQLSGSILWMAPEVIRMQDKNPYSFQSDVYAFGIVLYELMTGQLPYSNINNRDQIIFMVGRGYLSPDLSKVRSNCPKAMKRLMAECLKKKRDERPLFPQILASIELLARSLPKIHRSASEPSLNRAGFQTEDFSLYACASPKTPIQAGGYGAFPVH
Description: as §1, with “were 5” for “were 2”, “recombinant B-Raf^V600E” for “recombinant C-Raf”, “ng MEK1 (K97R)” for “ng MEK1(K97R)”

[2] = system: B-Raf^V600E mutant A375 melanoma cell; assay: Cell proliferation assay (CELLTITER 96), A375; assay type: cell-based; conditions: Homo sapiens, A-375; A375, 72 hours; read-out: Cytotoxicity (IC50 Ranking) A375 (B-Raf^V600E)
Description: as §2, §3

B-Raf kinase = molecular target: T3, B-Raf kinase (Homo sapiens, UniProt P15056); assay: B-Raf kinase assay ([33P] incorporation into MEK1 K97R); assay type: biochemical; conditions: recombinant B-Raf, 8 μM ATP, 30 min, 30° C.; read-out: IC50 ranking against B-Raf kinase
T3 construct: purchased Upstate Biotechnology
T3 sequence (P15056 whole entry): as the sequence (P15056 whole entry V600E) above, with E600V counted along it
Description: Inhibition of kinase activity by a test compound disclosed herein was estimated by quantifying the amount of [^33P] incorporation of a substrate in the presence of the test compound. Standard assay conditions were 5 ng of recombinant B-Raf kinase (Upstate Biotechnology) with 500 ng MEK1(Map-erk kinase; K97R) in the assay buffer (8 μM ATP, 0.5 μCi [^33P]ATP (specific activity 3000 Ci/mmol, PerkinElmer), 50 mM Tris/HCl (pH 7.5), and 1 mM EGTA, 1 mM Na3VO4, 1% 2-mercaptoethanol, 0.1% Brij 35, and 0.2 mg/ml BSA) in a final volume of 25 μL. Reactions were incubated at 30° C. for 30 min and stopped by adding 3% phosphoric acid, harvested onto a 96-well GF/B UniFilter (PerkinElmer) using a unifilter harvester (PerkinElmer), and counted with a TopCount microplate scintillation counter (PerkinElmer). The IC50 values of inhibitors were determined after carrying out assays at 3-fold serially diluted concentrations of each compound in duplication. The results were analyzed using linear regression software (GraphPad Prism 4; GraphPad Software Inc.).

[3] = system: SK-MEL-2 melanoma cell with wild type B-Raf (B-Raf^wt) and NRAS^Q61R mutation; assay: Cell proliferation assay (CELLTITER 96), SK-MEL-2; assay type: cell-based; conditions: Homo sapiens, SK-MEL-2, 72 hours, read-out: Cytotoxicity (IC50 Ranking) SK-MEL-2 (NRAS^Q61R, B-Raf^wt)
Description: as §2, §3

SMILES	IC50 (C-Raf kinase) [nM]	IC50 (B-Raf^V600E kinase) [nM]	IC50 (B-Raf kinase) [nM]	IC50 [1] [nM]	IC50 [2] [nM]	IC50 ([3]; given as bound) [nM]	IC50 ([3]; given as class symbol) [nM]
CCOc1cnc2ccc(Nc3cc(NS(=O)(=O)c4ccccc4)ccc3F)c(C#N)c2n1 [compound 24, N-(3-(5-cyano-3-ethoxyquinoxalin-6-ylamino)-4-fluorophenyl)benzenesulfonamide]	< 300	< 300	< 300	< 300	300 to 1000	> 10000	–
N#Cc1c(Nc2cc(NS(=O)(=O)c3ccccc3)ccc2F)ccc2ncc(N3CCOCC3)nc12 [compound 25, N-(3-(5-cyano-3-morpholinoquinoxalin-6-ylamino)-4-fluorophenyl)benzenesulfonamide]	< 300	< 300	< 300	< 300	300 to 1000	> 10000	–
CS(=O)(=O)Nc1ccc(F)c(Nc2ccc3ncc(N4CCOCC4)nc3c2C#N)c1 [compound 26, N-(3-(5-cyano-3-morpholinoquinoxalin-6-ylamino)-4-fluorophenyl)methanesulfonamide]	1000 to 10000	1000 to 10000	1000 to 10000	1000 to 10000	1000 to 10000	> 10000	–
CCOc1cnc2ccc(Nc3cc(NS(C)(=O)=O)ccc3F)c(C#N)c2n1 [compound 27, N-(3-(5-cyano-3-ethoxyquinoxalin-6-ylamino)-4-fluorophenyl)methanesulfonamide]	1000 to 10000	1000 to 10000	1000 to 10000	300 to 1000	1000 to 10000	> 10000	–
CCCS(=O)(=O)Nc1ccc(F)c(Nc2ccc3ncc(N(C)C)nc3c2C#N)c1 [compound 28, N-(3-(5-cyano-3-(dimethylamino)quinoxalin-6-ylamino)-4-fluorophenyl)propane-1-sulfonamide]	< 300	300 to 1000	300 to 1000	< 300	300 to 1000	> 10000	–
CCCS(=O)(=O)Nc1ccc(F)c(Nc2ccc3ncc(OC)nc3c2C=O)c1F [compound 29, N-(2,4-difluoro-3-(5-formyl-3-methoxyquinoxalin-6-ylamino)phenyl)propane-1-sulfonamide]	< 300	< 300	< 300	< 300	< 300	> 10000	–
CCCS(=O)(=O)Nc1ccc(F)c(Nc2ccc3ncc(OC)nc3c2C(=O)O)c1F [compound 30, 6-(2,6-difluoro-3-(propylsulfonamido)phenylamino)-3-methoxyquinoxaline-5-carboxylic acid]	300 to 1000	300 to 1000	300 to 1000	1000 to 10000	1000 to 10000	> 10000	–
CCCS(=O)(=O)Nc1ccc(F)c(Nc2ccc3ncc(OC)nc3c2C(=O)OC)c1F [compound 31, methyl 6-(2,6-difluoro-3-(propylsulfonamido)phenylamino)-3-methoxyquinoxaline-5-carboxylate]	< 300	< 300	< 300	300 to 1000	300 to 1000	> 10000	–

The next lines start with results.

IC50 (C-Raf kinase) [nM]	IC50 (B-Raf^V600E kinase) [nM]	IC50 (B-Raf kinase) [nM]	SMILES	IC50 [1] [nM]	IC50 [2] [nM]	IC50 ([3]; given as bound) [nM]	IC50 ([3]; given as class symbol) [nM]
< 300	< 300	< 300	N#Cc1c(Nc2c(F)ccc(NS(=O)(=O)CCCF)c2F)ccc2ncc(N3CCOCC3)nc12 [compound 33, N-(3-(5-cyano-3-morpholinoquinoxalin-6-ylamino)-2,4-difluorophenyl)-3-fluoropropane-1-sulfonamide]	< 300	< 300	–	1000 to 10000
< 300	< 300	< 300	CCOc1cnc2ccc(Nc3c(F)ccc(NS(=O)(=O)CCCF)c3F)c(C#N)c2n1 [compound 34, N-(3-(5-cyano-3-ethoxyquinoxalin-6-ylamino)-2,4-difluorophenyl)-3-fluoropropane-1-sulfonamide]	< 300	< 300	> 10000	–
< 300	< 300	< 300	COc1cnc2ccc(Nc3cc(NS(=O)(=O)c4ccccc4)ccc3F)c(C#N)c2n1 [compound 35, N-(3-(5-cyano-3-methoxyquinoxalin-6-ylamino)-4-fluorophenyl)benzenesulfonamide]	< 300	< 300	> 10000	–
< 300	< 300	< 300	CCCS(=O)(=O)Nc1ccc(F)c(Nc2ccc3ncc(OCC)nc3c2C#N)c1 [compound 36, N-(3-(5-cyano-3-ethoxyquinoxalin-6-ylamino)-4-fluorophenyl)propane-1-sulfonamide]	< 300	< 300	> 10000	–
< 300	< 300	< 300	CN(C)c1cnc2ccc(Nc3cc(NS(=O)(=O)c4ccccc4)ccc3F)c(C#N)c2n1 [compound 37, N-(3-(5-cyano-3-(dimethylamino)quinoxalin-6-ylamino)-4-fluorophenyl)benzenesulfonamide]	1000 to 10000	1000 to 10000	> 10000	–
< 300	< 300	< 300	CCCS(=O)(=O)Nc1cccc(Nc2ccc3ncc(N4CCOCC4)nc3c2C#N)c1C [compound 38, N-(3-(5-cyano-3-morpholinoquinoxalin-6-ylamino)-2-methylphenyl)propane-1-sulfonamide]	< 300	< 300	> 10000	–
1000 to 10000	300 to 1000	300 to 1000	CCCS(=O)(=O)Nc1ccc(C)c(Nc2ccc3ncc(N4CCOCC4)nc3c2C#N)c1 [compound 39, N-(3-(5-cyano-3-morpholinoquinoxalin-6-ylamino)-4-methylphenyl)propane-1-sulfonamide]	1000 to 10000	1000 to 10000	> 10000	–
